Data: US11077210B2, “Near-infrared fluorescent contrast bioimaging agents and methods of use thereof” (Beth Israel Deaconess Medical Center, priority 2013, dated 2021)

Key:
Type in all cases: in vivo
CSF = CSF NIR fluorescence imaging (FLARE); conditions: 35 kg female pig, 5 μmol intravenously, 4 hours; Channel 1 (700 nm) or Channel 2 (800 nm)
Experimental: (§1) Absorbance and fluorescence emission spectra were measured using fiber optic HR2000 absorbance (200-1100 nm) and USB2000FL fluorescence (350-1000 nm) spectrometers (Ocean Optics, Dunedin, Fla.). Excitation was provided by a 532 nm green laser pointer (Opcom Inc., Xiamen, China) set to 5 mW, a 655 nm red laser pointer (Opcom Inc., Xiamen, China) set to 5 mW, or a 770 nm NIR laser diode light source (Electro Optical Components, Santa Rosa, Calif.) set to 10 mW and coupled through a 300 μm core diameter, NA 0.22 fiber (Fiberguide Industries, Stirling, N.J.). In silico calculations of the partition coefficient (log D at pH 7.4) and surface molecular charge and hydrophobicity were calculated using MarvinSketch 5.2.1 by taking major microspecies at pH 7.4 (ChemAxon, Budapest, Hungary). NIR Fluorescence Imaging System The dual-NIR channel FLARE′ imaging system has been described in detail previously (26-28). […] Color and two independent NIR fluorescence emission images (≈700 nm for Channel 1 and ≈800 nm for Channel 2) were acquired simultaneously with custom software at rates up to 15 Hz over a 15 cm diameter field of view. NIR fluorescence from Channel 1 was pseudo-colored in red and NIR fluorescence from Channel 2 was pseudo-colored in lime green prior to merger with the color video image. […] Animal Models and Intraoperative NIR Fluorescence Imaging […]

[1] = system: neuroendocrine tumors (insulinoma); experiment: Neuroendocrine tumor NIR fluorescence imaging (FLARE); conditions: 25 g male insulinoma-bearing mouse, 140 nmol intravenously, 1 hour, pancreas imaged; Channel 1 (700 nm) or Channel 2 (800 nm)
Experimental: as §1

spinal cartilage = experiment: Cartilage NIR fluorescence imaging (FLARE); conditions: 35 kg female pig, 5 μmol intravenously, 4 hours, Channel 1 (700 nm) or Channel 2 (800 nm)
Experimental: as §1

SLN = experiment: Sentinel lymph node (SLN) NIR fluorescence imaging (FLARE); conditions: 35 kg female pig, 5 nmol subcutaneously into bowel, 5 min; Channel 1 (700 nm) or Channel 2 (800 nm)
Experimental: as §1

pan lymph nodes = experiment: Pan lymph node NIR fluorescence imaging (FLARE); conditions: 250 g male rat, 20 nmol intravenously, 4 hours; Channel 1 (700 nm) or Channel 2 (800 nm)
Experimental: as §1

bone (rib cage) = experiment: Bone NIR fluorescence imaging (FLARE); conditions: 35 kg female pig, 5 μmol intravenously, 4 hours, Channel 1 (700 nm) or Channel 2 (800 nm)
Experimental: as §1

ovaries = experiment: Ovary NIR fluorescence imaging (FLARE); conditions: 25 g female mouse, 25 nmol intravenously, 4 hours; Channel 1 (700 nm) or Channel 2 (800 nm)
Experimental: as §1

gallbladder = experiment: Gallbladder NIR fluorescence imaging (FLARE); conditions: 25 g male mouse, 25 nmol intravenously, 4 hours; Channel 1 (700 nm) or Channel 2 (800 nm)
Experimental: as §1

prostate = experiment: Prostate NIR fluorescence imaging (FLARE); conditions: 25 g male mouse, 25 nmol intravenously, 4 hours; Channel 1 (700 nm) or Channel 2 (800 nm)
Experimental: as §1

brain vasculature = experiment: Brain vasculature NIR fluorescence imaging (FLARE); conditions: 25 g male mouse, 25 nmol intravenously, 4 hours; Channel 1 (700 nm)
Experimental: as §1

Peyer's patches = Peyer's patches NIR fluorescence imaging (FLARE); conditions: 250 g male rat, 100 nmol intravenously, 4 hours; Channel 2 (800 nm)
Experimental: as §1

CN1/C(=C/C=C/C=C/C=C/C2=[N+](C)c3ccccc3C2(C)C)C(C)(C)c2ccccc21 [AL20]
NIR fluorescence contrast of the CSF (CSF): highlighted with high contrast
NIR fluorescence contrast of the tumors [1]: highlighted with high contrast

C[N+](C)(C)CCCN1/C(=C/C=C/C=C/c2sc3cc(O)ccc3[n+]2CCC[N+](C)(C)C)Sc2cc(O)ccc21 [SP56]
NIR fluorescence contrast of the cartilage (spinal cartilage): highlighted with high contrast

CN(C)c1ccc2nc3ccc(=[N+](C)C)cc-3oc2c1 [ESS61]
NIR fluorescence contrast of the tumors [1]: highlighted with high contrast

CC1(C)C(/C=C/C2=C(Sc3ccc(CCN)cc3)C(=C/C=C3/N(CCC[N+](C)(C)C)c4ccc(S(=O)(=O)O)cc4C3(C)C)/CCC2)=[N+](CCC[N+](C)(C)C)c2ccc(S(=O)(=O)O)cc21 [LN50]
NIR fluorescence contrast of the cartilage (spinal cartilage): highlighted with high contrast

CC1(C)C(/C=C/C2=C(Oc3ccc(CCC(=O)O)cc3)C(=C/C=C3/N(CCC[N+](C)(C)C)c4ccccc4C3(C)C)/CCC2)=[N+](CCC[N+](C)(C)C)c2ccccc21 [MM25]
NIR fluorescence contrast of the SLN (SLN): highlighted with high contrast
NIR fluorescence contrast of all lymph nodes (pan lymph nodes): highlighted with high contrast

CCN1/C(=C/C=C/C=C/C2=[N+](CC)c3ccc4ccccc4c3C2(C)C)C(C)(C)c2c1ccc1ccccc21 [MHI86]
NIR fluorescence contrast of the SLN (SLN): highlighted with high contrast

CC1(C)C(/C=C/C(C/C=C2/N(CCCP(=O)(O)O)c3ccc(S(=O)(=O)[O-])cc3C2(C)C)c2ccc(CCC(=O)O)cc2)=[N+](CCCP(=O)(O)O)c2ccc(S(=O)(=O)O)cc21 (centres unmarked) [P700SO3]
NIR fluorescence contrast of the bone (bone (rib cage)): highlighted with high contrast

CCN(CC)c1ccc(/C=C/C2=CC(/C=C/c3ccc(N(CC)CC)cc3O)=[O+][B-](F)(F)O2)c(O)c1 [PS62]
NIR fluorescence contrast of the ovaries (ovaries): highlighted with high contrast
NIR fluorescence contrast of the gallbladder (gallbladder): highlighted with high contrast
NIR fluorescence contrast of the prostate (prostate): highlighted with high contrast

CNCCCN1/C(=C/C=C/C=C/c2sc3cc(O)ccc3[n+]2CCCNC)Sc2cc(O)ccc21 [ZK214]
NIR fluorescence contrast of the brain vasculature (brain vasculature): highlighted with high contrast

CC1(C)C(/C=C/C=C/C=C/C=C2/N(CCC[N+](C)(C)C)c3ccccc3C2(C)C)=[N+](CCC[N+](C)(C)C)c2ccccc21 [AL30]
NIR fluorescence contrast of the Peyer's patches (Peyer's patches): highlighted with high contrast
